Experimental data from US10722514B2 (FLX Bio, Inc., priority 2017, dated 2020).
Structures can show the parent of a compound that is named as a salt.

target: T1, recombinant full-length USP7 (Homo sapiens, UniProt Q93009); experiment: USP7-mediated ubiquitin-rhodamine cleavage assay; type: biochemical; conditions: recombinant full-length USP7 62 pM; ubiquitin-rhodamine 100 nM; 30-minute incubation with compound, 1 hour reaction at room temperature; read-out: Potency: USP7 IC50
T1 construct: A 25 μl reaction volume containing recombinant full-length USP7 (62 pM)
Description: In the case of the USP7 deubiquitylating enzyme, the IC50 of an USP7 inhibiting compound is the concentration of the compound that inhibits 50% of the activity observed in a USP7-mediated ubiquitin-rhodamine cleavage assay.
For the USP7 inhibitors disclosed herein, their potency was measured using the following test method.
A 25 μl reaction volume containing recombinant full-length USP7 (62 pM) in 20 mM HEPES pH 7.3, 150 mM NaCl, 1 mM TCEP, and 125 μg/ml BSA was assembled in wells of 384 well plates. Test compounds were dispensed with a Hewlett Packard D300 digital dispenser (1% final DMSO). Following a 30-minute incubation at room temperature, ubiquitin-rhodamine was added with the D300 to a final concentration of 100 nM and the reaction was allowed to proceed for 1 hour at room temperature protected from light. The reaction was stopped by the addition of 5 μl 1M acetic acid. Rhodamine fluorescence was measured using an Envision plate reader (Perkin Elmer) and IC50 values were determined by non-linear regression using a 4-parameter fit in a Dotmatics (Bishops Stortford, Hertfordshire, England) software package.

T1 sequence (Q93009 whole entry): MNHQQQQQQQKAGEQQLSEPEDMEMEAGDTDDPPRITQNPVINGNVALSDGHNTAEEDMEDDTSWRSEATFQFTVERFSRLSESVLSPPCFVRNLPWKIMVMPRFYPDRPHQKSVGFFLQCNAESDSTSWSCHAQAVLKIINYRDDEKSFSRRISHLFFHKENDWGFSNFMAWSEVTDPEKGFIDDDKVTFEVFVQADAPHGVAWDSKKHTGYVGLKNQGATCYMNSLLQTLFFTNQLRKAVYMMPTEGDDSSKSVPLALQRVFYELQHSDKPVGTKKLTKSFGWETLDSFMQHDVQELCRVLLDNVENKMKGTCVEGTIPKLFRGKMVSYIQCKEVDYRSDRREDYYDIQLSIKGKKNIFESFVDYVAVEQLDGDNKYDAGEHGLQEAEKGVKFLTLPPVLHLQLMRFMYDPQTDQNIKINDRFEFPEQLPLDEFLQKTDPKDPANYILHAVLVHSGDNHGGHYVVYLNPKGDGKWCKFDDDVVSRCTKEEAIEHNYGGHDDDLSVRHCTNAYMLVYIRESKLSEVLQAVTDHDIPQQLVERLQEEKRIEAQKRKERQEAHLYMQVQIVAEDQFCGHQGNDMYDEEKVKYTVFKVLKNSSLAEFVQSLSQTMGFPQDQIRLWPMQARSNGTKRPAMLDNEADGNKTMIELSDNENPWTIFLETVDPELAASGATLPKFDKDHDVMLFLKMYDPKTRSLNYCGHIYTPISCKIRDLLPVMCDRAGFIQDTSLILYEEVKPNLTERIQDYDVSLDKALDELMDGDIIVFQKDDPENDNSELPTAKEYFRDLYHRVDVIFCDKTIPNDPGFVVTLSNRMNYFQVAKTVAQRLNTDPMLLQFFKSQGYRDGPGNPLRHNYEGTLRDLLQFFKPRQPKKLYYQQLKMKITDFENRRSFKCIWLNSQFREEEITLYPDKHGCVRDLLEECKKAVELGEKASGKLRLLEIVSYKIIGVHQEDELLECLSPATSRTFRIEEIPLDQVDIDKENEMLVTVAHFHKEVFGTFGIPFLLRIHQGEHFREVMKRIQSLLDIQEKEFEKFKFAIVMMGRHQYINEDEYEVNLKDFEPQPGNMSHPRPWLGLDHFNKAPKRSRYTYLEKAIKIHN

Question: For “3-((7-(5-Chloro-2-(((3S,4R)-4-fluoropiperidin-3-yl)oxy)-3-methyphenyl)thien[3,2-b]pyridin-2-yl)methyl)-1-(2,2,2-trifluoroethyl)pyrimidine-2,4(1H,3H)-dione [Example 4]”, which IC50 is on record?
Answer: The IC50 was under 1 µM.

Question: For CCC(O)c1cc2nccc(-c3cc(Cl)cc(C)c3OC3CCCNCC3)c2s1 (centres unmarked) [Example 267, 1-(7-(2-(Azepan-4-yloxy)-5-chloro-3-methylphenyl)thieno[3,2-b]pyridin-2-yl)propan-1-ol], which IC50 is on record?
Answer: The IC50 was 1 to 10 µM.

Question: Which IC50 does the source give for CC(=O)NCc1cc2nccc(-c3cc(Cl)cc(C)c3O[C@H]3CCCNC3)c2s1 [Example 263, (S)—N-((7-(5-Chloro-3-methyl-2-(piperidin-3-yloxy)phenyl)thieno[3,2-b]pyridin-2-yl)methyl)acetamide] here?
Answer: Its IC50 is 1 to 10 µM.

Question: Cc1cc(Cl)cc(-c2ccnc3cc(CN4C(=O)C5C(C4=O)C5(C)C)sc23)c1O[C@H]1CCNC[C@H]1F (stereo partly drawn) [Example 392, 3-[[7-[5-chloro-2-[[(3R,4S)-3-fluoro-4-piperidyl]oxy]-3-methyl-phenyl]thieno[3,2-b]pyridin-2-yl]methyl]-6,6-dimethyl-3-azabicyclo[3.1.0]hexane-2,4-dione; 2,2,2-trifluoroacetic acid] was tested. Which IC50 did it give?
Answer: Its IC50 is under 1 µM.

Question: Which IC50 does the source give for Cc1cc(Cl)cc(-c2ccnc3cc(CN4C(=O)C5CCCN5C4=O)sc23)c1OC1CCNCC1 (centres unmarked) [Example 218, 2-((7-(5-Chloro-3-methyl-2-(piperidin-4-yloxy)phenyl)thieno[3,2-b]pyridin-2-yl)methyl)tetrahydro-1H-pyrrolo[1,2-c]imidazole-1,3(2H)-dione] here?
Answer: Its IC50 is 1 to 10 µM.

Question: Cc1cc(Cl)cc(-c2ccnc3cc(CN4C(=O)C5CC5C4=O)sc23)c1O[C@@H]1CCN(C)C[C@@H]1C (stereo partly drawn) [Example 326, 3-[[7-[5-chloro-2-[[(3S,4R)-1,3-dimethyl-4-piperidyl]oxy]-3-methyl-phenyl]thieno[3,2-b]pyridin-2-yl]methyl]-3-azabicyclo[3.1.0]hexane-2,4-dione] was tested. Which IC50 did it give?
Answer: The IC50 was under 1 µM.

Question: With Cc1cc(Cl)cc(-c2ncnc3cc(CN4C(=O)C5C(C4=O)C5(C)C)sc23)c1O[C@@H]1C[C@H]2CN[C@@H]1C2 (stereo partly drawn) [Example 354, 3-[[4-[2-[[(1S,4R,5R)-3-azabicyclo[2.2.1]heptan-5-yl]oxy]-5-chloro-3-methyl-phenyl]thieno[3,2-d]pyrimidin-6-yl]methyl]-6,6-dimethyl-3-azabicyclo[3.1.0]hexane-2,4-dione dihydrochloride] as the compound, how does the IC50 read?
Answer: Its IC50 is under 1 µM.

Question: Which IC50 does the source give for Cc1cc(Cl)cc(-c2ncnc3cc(CN4C(=O)C5CC5C4=O)sc23)c1O[C@@H]1CNC[C@@H]1F (stereo partly drawn) [Example 351, 3-[[4-[5-chloro-2-[(3R,4S)-4-fluoropyrrolidin-3-yl]oxy-3-methyl-phenyl]thieno[3,2-d]pyrimidin-6-yl]methyl]-3-azabicyclo[3.1.0]hexane-2,4-dione dihydrochloride] here?
Answer: The IC50 was under 1 µM.

Question: How did the IC50 turn out when Cc1cc2nccc(-c3cc(Cl)cc(C)c3OCC3CNC3)c2s1 [Example 37, 7-(2-(Azetidin-3-ylmethoxy)-5-chloro-3-methylphenyl)-2-methylthieno[3,2-b]pyridine] was run?
Answer: Its IC50 is 1 to 10 µM.

Question: Which IC50 does the source give for Cc1cc(C#N)cc(-c2ncnc3cc(CN4C(=O)c5ccccc5C4=O)sc23)c1O[C@@H]1CNC[C@@H]1F [Example 110, 3-(6-((1,3-Dioxoisoindolin-2-yl)methyl)thieno[3,2-d]pyrimidin-4-yl)-4-(((3R,4S)-4-fluoropyrrolidin-3-yl)oxy)-5-methylbenzonitrile] here?
Answer: Its IC50 is under 1 µM.

Question: For CCC(O)c1cc2nccc(-c3cc(Cl)cc(C)c3O[C@H]3C[C@H]4CC[C@@H](C3)N4)c2s1 (stereo partly drawn) [Example 199, 1-(7-(2-(((1R,3r,5S)-8-Azabicyclo[3.2.1]octan-3-yl)oxy)-5-chloro-3-methylphenyl)thieno[3,2-b]pyridin-2-yl)propan-1-ol], which IC50 is on record?
Answer: The IC50 was 1 to 10 µM.

Question: Cc1cc(Cl)cc(-c2ncnc3cc(CN4C(=O)CCC4=O)sc23)c1O[C@H]1CCCNC1 [Example 230, (S)-1-((4-(5-Chloro-3-methyl-2-(piperidin-3-yloxy)phenyl)thieno[3,2-d]pyrimidin-6-yl)methyl)pyrrolidine-2,5-dione] was tested. Which IC50 did it give?
Answer: The IC50 was under 1 µM.

Question: For Cc1cc(Cl)cc(-c2ccnc3cc(CN4C(=O)C5C(C4=O)C5(C)C)sc23)c1O[C@@H]1CCNC[C@H]1F (stereo partly drawn) [Example 294, 3-[[7-[5-chloro-2-[[(3R,4R)-3-fluoro-4-piperidyl]oxy]-3-methyl-phenyl]thieno[3,2-b]pyridin-2-yl]methyl]-6,6-dimethyl-3-azabicyclo[3.1.0]hexane-2,4-dione; 2,2,2-trifluoroacetic acid], which IC50 is on record?
Answer: Its IC50 is under 1 µM.

Question: How did the IC50 turn out when CCC(O)c1cc2nccc(-c3cc(Cl)cc(C)c3OCC3(C#N)CNC3)c2s1 (centres unmarked) [Example 39, 3-((4-Chloro-2-(2-(1-hydroxypropyl)thieno[3,2-b]pyridin-7-yl)-6-methylphenoxy)methyl)azetidine-3-carbonitrile] was run?
Answer: Its IC50 is under 1 µM.

Question: With Cc1cc(Cl)cc(-c2ccnc3cc(CN4C(=O)CCC4=O)sc23)c1OCC12CNCC1C2 (centres unmarked) [Example 52, 1-((7-(2-((3-Azabicyclo[3.1.0]hexan-1-yl)methoxy)-5-chloro-3-methylphenyl)thieno[3,2-b]pyridin-2-yl)methyl)pyrrolidine-2,5-dione] as the compound, how does the IC50 read?
Answer: Its IC50 is under 1 µM.

Question: Cc1cc(Cl)cc(-c2ccnc3cc(CN4C(=O)C5C(C4=O)C5(C)C)sc23)c1O[C@@H]1CCNC[C@@H]1F (stereo partly drawn) [Example 376, 3-[[7-[5-chloro-2-[[(3S,4R)-3-fluoro-4-piperidyl]oxy]-3-methyl-phenyl]thieno[3,2-b]pyridin-2-yl]methyl]-6,6-dimethyl-3-azabicyclo[3.1.0]hexane-2,4-dione; 2,2,2-trifluoroacetic acid] was tested. Which IC50 did it give?
Answer: The IC50 was under 1 µM.

Question: With Cc1cc(Cl)cc(-c2ccnc3cc(CO)sc23)c1OC1CCNCC1 [Example 175, (7-(5-Chloro-3-methyl-2-(piperidin-4-yloxy)phenyl)thieno[3,2-b]pyridin-2-yl)methanol] as the compound, how does the IC50 read?
Answer: The IC50 was 1 to 10 µM.

same assay, conditions: recombinant full-length USP7 62 pM; ubiquitin-rhodamine 100 nM; 30-minute pre-incubation, 1 hour reaction at room temperature; read-out: Potency (USP7 IC50)

Question: Cc1cc(Cl)cc(-c2ccnc3cc(Cn4c(=O)ccn(C(C)C(F)(F)F)c4=O)sc23)c1O[C@H]1CCCNC1 (stereo partly drawn) [Example 575, 3-[[7-[5-chloro-3-methyl-2-[[(3S)-3-piperidyl]oxy]phenyl]thieno[3,2-b]pyridin-2-yl]methyl]-1-(2,2,2-trifluooro-1-methyl-ethyl)pyrimidine-2,4-dione] was tested. Which IC50 did it give?
Answer: Its IC50 is under 1 µM.

Question: Which IC50 does the source give for Cc1cc(Cl)cc(-c2ccnc3cc(COc4nc(=O)ccn4CC(F)(F)F)sc23)c1O[C@H]1CNCC[C@H]1C [Example 615, 2-[[7-[5-chloro-3-methyl-2-[[(3R,4R)-4-methyl-3-piperidyl]oxy]phenyl]thieno[3,2-b]pyridin-2-yl]methoxy]-1-(2,2,2-trifluoroethyl)pyrimidin-4-one] here?
Answer: The IC50 was under 1 µM.

Question: Cc1cc(Cl)cc(-c2ncnc3cc(Cn4c(=O)ccn(CC(F)(F)F)c4=O)sc23)c1O[C@@H]1CC[C@@H](N)C1 [Example 603, 3-[[4-[2-[(1R,3R)-3-aminocyclopentoxy]-5-chloro-3-methyl-phenyl]thieno[3,2-d]pyrimidin-6-yl]methyl]-1-(2,2,2-trifluoroethyl)pyrimidine-2,4-dione] was tested. Which IC50 did it give?
Answer: Its IC50 is under 1 µM.

Question: With Cc1cc(Cl)cc(-c2ncnc3cc(Cn4c(=O)ccn(CC(F)(F)F)c4=O)sc23)c1OC1CC2CNC1C2 (centres unmarked) [Example 539, 3-[[4-[2-(3-azabicyclo[2.2.1]heptan-5-yloxy)-5-chloro-3-methyl-phenyl]thieno[3,2-d]pyrimidin-6-yl]methyl]-1-(2,2,2-trifluoroethyl)pyrimidine-2,4-dione] as the compound, how does the IC50 read?
Answer: Its IC50 is under 1 µM.

Question: Which IC50 does the source give for Cc1cc(Cl)cc(-c2ccnc3cc(Cn4c(=O)c(C)cn(CC(F)(F)F)c4=O)sc23)c1O[C@H]1CCCNC1 [Example 557, 3-[[7-[5-chloro-3-methyl-2-[[(3S)-3-piperidyl]oxy]phenyl]thieno[3,2-b]pyridin-2-yl]methyl]-5-methyl-1-(2,2,2-trifluoroethyl)pyrimidine-2,4-dione] here?
Answer: The IC50 was under 1 µM.

Question: Cc1cc(C(F)(F)F)cc(-c2ccnc3cc(Cn4c(=O)ccn(C)c4=O)sc23)c1OC1CCNCC1 [Example 446, 1-methyl-3-[[7-[3-methyl-2-(4-piperidyloxy)-5-(trifluoromethyl)phenyl]thieno[3,2-b]pyridin-2-yl]methyl]pyrimidine-2,4-dione] was tested. Which IC50 did it give?
Answer: Its IC50 is under 1 µM.

Question: For CCO[C@H]1CNC[C@H]1Oc1c(C)cc(Cl)cc1-c1ccnc2cc(Cn3c(=O)ccn(CC(F)(F)F)c3=O)sc12 [Example 604, 3-[[7-[5-chloro-2-[(3R,4S)-4-ethoxypyrrolidin-3-yl]oxy-3-methyl-phenyl]thieno[3,2-b]pyridin-2-yl]methyl]-1-(2,2,2-trifluoroethyl)pyrimidine-2,4-dione], which IC50 is on record?
Answer: The IC50 was under 1 µM.

Question: For Cc1cc(Cl)cc(-c2ncnc3cc(Cn4c(=O)ccn(C(C)C)c4=O)sc23)c1O[C@H]1CC[C@H](N)C1 [Example 542, 3-[[4-[2-[(1S,3S)-3-aminocyclopentoxy]-5-chloro-3-methyl-phenyl]thieno[3,2-d]pyrimidin-6-yl]methyl]-1-isopropyl-pyrimidine-2,4-dione; 2,2,2-trifluoroacetic acid], which IC50 is on record?
Answer: Its IC50 is under 1 µM.

Question: Which IC50 does the source give for Cc1cc(Cl)cc(-c2ccnc3cc(Cn4c(=O)ccn(CC(F)(F)F)c4=O)sc23)c1O[C@@H]1CCN(C(=O)C(F)(F)F)C[C@@H]1C [Example 609, 3-[[7-[5-chloro-3-methyl-2-[[(3S,4R)-3-methyl-1-(2,2,2-trifluoroacetyl)-4-piperidyl]oxy]phenyl]thieno[3,2-b]pyridin-2-yl]methyl]-1-(2,2,2-trifluoroethyl)pyrimidine-2,4-dione] here?
Answer: The IC50 was under 1 µM.
